Results as given in patent US5411879A, “Fatty acyl reductases” (Calgene Inc., priority 1993, dated 1995).
Read-outs that look alike come from different tables or passages of the source. Blank lines part the entries; values can stand above or below the compound they belong to.

Assays:
[1] = target: T1, jojoba acyl-CoA reductase (Simmondsia chinensis, UniProt Q9XGY7); assay: Acyl (substrate) specificity of the reductase, microsomal membrane preparation; assay type: biochemical; set-up: The microsomal membrane preparation described above is used for further characterization of the reductase enzyme; from tissue; host or cells: developing jojoba embryos (seed coats removed), microsomal membrane preparation; details: acyl-CoA thioester as substrate at 10 μM; 0.5M NaCl; pH 7.5
T1 sequence (Q9XGY7 1-493): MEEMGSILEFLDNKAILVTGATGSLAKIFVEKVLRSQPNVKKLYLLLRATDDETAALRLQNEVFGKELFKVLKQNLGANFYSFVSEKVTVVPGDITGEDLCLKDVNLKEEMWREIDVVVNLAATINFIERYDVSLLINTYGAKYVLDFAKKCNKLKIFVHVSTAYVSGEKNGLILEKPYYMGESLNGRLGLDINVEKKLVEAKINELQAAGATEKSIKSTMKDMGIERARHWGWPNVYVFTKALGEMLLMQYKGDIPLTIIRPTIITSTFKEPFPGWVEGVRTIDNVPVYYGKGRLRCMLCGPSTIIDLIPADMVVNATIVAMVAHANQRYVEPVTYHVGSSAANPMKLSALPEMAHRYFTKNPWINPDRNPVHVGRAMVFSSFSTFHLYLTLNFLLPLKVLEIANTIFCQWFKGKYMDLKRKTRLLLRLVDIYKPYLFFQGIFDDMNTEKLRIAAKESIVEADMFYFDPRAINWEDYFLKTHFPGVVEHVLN
From the text: (§1) 3. […] NaCl concentration in these assays is 0.5M.

[2] = target: T1, jojoba acyl-CoA reductase; details: for inhibitory effect on reductase activity (in words): known reductase/synthase inhibitors and sulphydryl blocking agents
Protocol: Reductase activity in a microsomal membrane preparation is measured by incubation of 20 μM [1-^14 C]acyl-CoA (usually tetracosenoyl-CoA, sp. act. 2-5 Ci/mol) with the sample to be assayed and 2 mM NADPH, in a total volume of 0.25 ml. The incubation mixture also contains 10% w/v glycerol, 1 mM DTT, and is buffered with 50 mM HEPES (4-[2-hydroxyethyl]-1-piperazineethane-sulfonic acid) (HEPES, here and as refered to hereafter is added from a 1M stock solution adjusted to pH 7.5) .
The assay is started by the addition of acyl-CoA substrate and the incubation is carried out at 30° C. for one hour. The assay is terminated by placing the assay tube on ice and immediately adding 0.25 ml isopropanol:acetic acid (5:1 v/v) . Unlabeled wax esters (0.1 mg) and oleyl alcohol (0.1 mg) are added as carriers. The [^14 C] lipids are extracted by the scaled-down protocol of Hara and Radin (Anal. Biochem. (1978) 90:420). Six ml of hexane/isopropanol (3:2, v/v) is added to the terminated assay. The sample is vortexed, 2 ml of aqueous sodium sulphate solution (5.5% w/v) is added, and the sample is again vortexed.
The microsomal membrane preparation described above is used for further characterization of the reductase enzyme. […] Characterization experiments were conducted at pH 7.5, which is close to the presumed physiological pH of the cytoplasm.
1. Salt Effects: A variety of salts were examined for their effect on reductase activity using a standard concentration of 0.5M for monobasic salts. Salts with divalent cations or anions were examined at 0.167M (to give the same ionic strength as the 0.5M monobasic salts) and also at 0.5M.
4. Reductase Inhibitor Assays: Several known inhibitors of other types of reductase proteins were tested for their effect on the jojoba acyl-CoA reductase activity.
Sulphydryl blocking agents were also screened for their effect on reductase activity.

jojoba acyl reductase = target: T2, jojoba acyl reductase (Simmondsia chinensis, UniProt Q9XGY7); assay: Detergent inhibition of reductase activity and its reversibility; assay type: biochemical
T2 construct: The microsomal membrane preparation described above is used for further characterization of the reductase enzyme; from tissue; host or cells: developing jojoba embryos (seed coats removed), microsomal membrane preparation
T2 sequence (Q9XGY7 1-493): T1 sequence (Q9XGY7 1-493)
From the text: Often, detergents which are used to solubilize membrane proteins are found to inhibit the enzymatic activity of a desired protein. […] However, as apparent detergent inhibition of reductase activity may be due to some effect other than irreversible inhibition of the enzyme, the reversibility of inhibition by CHAPS was examined.
A protocol for solubilizing jojoba acyl reductase activity utilizing the detergent CHAPS has been devised which yields approximately 85% of the reductase activity from the microsomal membrane preparation. This method is discussed in detail in Example 2. Similarly, studies of reversibility of apparent reductase inhibition by other detergents may be conducted to identify other useful detergents for solubilization of acyl reductase activity for jojoba or other candidate reductases.

[3] = tested on: jojoba acyl-CoA reductase; assay: Acyl (substrate) specificity of the reductase, microsomal membrane preparation; assay type: biochemical; details: substrates compared at 10 uM, 0.5M NaCl
From the text: as §1

[4] = tested on: jojoba acyl-CoA reductase; details: previously shown, Pollard et al.; cited from earlier work
[5] = target: T1, jojoba acyl-CoA reductase; assay: Competitive inhibition experiment, unlabelled palmitoyl-CoA vs [1-14C]tetracosenoyl-CoA; assay type: biochemical; set-up: The microsomal membrane preparation described above is used for further characterization of the reductase enzyme; from tissue; host or cells: developing jojoba embryos (seed coats removed), microsomal membrane preparation; details: unlabelled inhibitor 0-30 μM; [1-14C]tetracosenoyl-CoA 20 μM; read-out: concentration giving 50% inhibition of reductase activity towards tetracosenoyl-CoA
[6] = millimolar concentrations (given for CoA and NADP+)
[7] = 0.5M for monobasic salts, divalent salts at 0.167M and 0.5M

Compound: CCCCCCCCCCCCCCCCCC(=O)SCCNC(=O)CCNC(=O)[C@H](O)C(C)(C)COP(=O)(O)OP(=O)(O)OC[C@H]1O[C@@H](n2cnc3c(N)ncnc32)[C@H](O)[C@@H]1OP(=O)(O)O [18:0 Acyl-CoA]
Reductase Activity, Acyl-CoA (10 μM) [1]: 1.4 pmol/min/µL

effect on reductase activity (in words) [2, 6]: significant inhibition
Compound: CC(C)(COP(=O)(O)OP(=O)(O)OC[C@H]1O[C@@H](n2cnc3c(N)ncnc32)[C@H](O)[C@@H]1OP(=O)(O)O)[C@@H](O)C(=O)NCCC(=O)NCCS [CoA, CoenzymeA]

effect on reductase activity (in words) [2, 6]: significant inhibition
Compound: NC(=O)c1ccc[n+]([C@@H]2O[C@H](COP(=O)([O-])OP(=O)(O)OC[C@H]3O[C@@H](n4cnc5c(N)ncnc54)[C@H](OP(=O)(O)O)[C@@H]3O)[C@@H](O)[C@H]2O)c1 [NADP+]

Compound: N#CS [KSCN]
salt effect on reductase activity (in words) [2]: no stimulation or marginal stimulation

Compound: [Cl-].[K+] [KCl]
salt effect on reductase activity (in words) [2, 7]: stimulate reductase activity

cofactor-dependent reductase activity relative to the NADPH-dependent activity ([2]; cofactor in place of NADPH, not measurable above background): < 2%
effect on reductase activity (in words) [2, 6]: marginal effects
Compound: NC(=O)C1=CN([C@@H]2O[C@H](COP(=O)(O)OP(=O)(O)OC[C@H]3O[C@@H](n4cnc5c(N)ncnc54)[C@H](O)[C@@H]3O)[C@@H](O)[C@H]2O)C=CC1 [NADH]

Compound: [Cl-].[Na+] [NaCl]
stimulation of reductase activity ([2]; microsomes, 500000 µM): Up to 15 fold

Compound: C[C@H](CCC(=O)NCCC[N+](C)(C)CCCS(=O)(=O)[O-])[C@H]1CC[C@H]2[C@@H]3[C@H](O)C[C@@H]4C[C@H](O)CC[C@]4(C)[C@H]3C[C@H](O)[C@]12C [CHAPS, 3-[(3-cholamidopropyl)-dimethyl-ammonio]-1-propanesulfonate]
inhibition of reductase activity by detergent (in words) (jojoba acyl reductase; at concentrations above the CMC): strong inhibition
reversibility of detergent inhibition (in words) (jojoba acyl reductase; enzyme exposed on ice, then returned to a concentration at or below the CMC): complete recovery of reductase activity

Compound: CCN1C(=O)C=CC1=O [N-ethylmaleimide]
inhibitory effect on reductase activity (in words) [2]: strongly inhibit

salt effect on reductase activity (in words) [2, 7]: stimulate reductase activity
Compound: O=S(=O)([O-])[O-].[Na+].[Na+] [Na2 SO4]

Compound: CC[C@H](C)C(=O)O[C@H]1C[C@@H](C)C=C2C=C[C@H](C)[C@H](CC[C@@H]3C[C@@H](O)CC(=O)O3)[C@H]21 [Mevinolin]
concentration at which an effect on jojoba acyl-CoA reductase activity was seen ([2]; only had an effect at relatively high concentrations): 100 µM

activity as substrate of the reductase (in words) [3]: high
Compound: palmitoyl-ACP [16:0 Acyl-ACP]

Compound: CCCCCCCC/C=C\CCCCCCCCCCCC(=O)SCCNC(=O)CCNC(=O)[C@H](O)C(C)(C)COP(=O)(O)OP(=O)(O)OC[C@H]1O[C@@H](n2cnc3c(N)ncnc32)[C@H](O)[C@@H]1OP(=O)(O)O [22:1 Acyl-CoA]
Reductase Activity, Acyl-CoA (10 μM) [1]: 1.0 pmol/min/µL

Compound: O=C(O)c1cc[c]([Hg][OH])cc1 [para-hydroxymercuribenzoate]
inhibitory effect on reductase activity (in words) [2]: some inhibitory effect

Compound: stearoyl-ACP
activity as substrate of the reductase (in words) [4]: activity as a substrate

effect on reductase activity (in words) [2, 6]: marginal effects
Compound: NC(=O)c1ccc[n+]([C@@H]2O[C@H](COP(=O)([O-])OP(=O)(O)OC[C@H]3O[C@@H](n4cnc5c(N)ncnc54)[C@H](O)[C@@H]3O)[C@@H](O)[C@H]2O)c1 [NAD+]

Compound: [Ca+2].[Cl-].[Cl-] [CaCl2]
salt effect on reductase activity (in words) [2, 7]: stimulate reductase activity

Compound: CCCCCCCCCCCCCCCC(=O)SCCNC(=O)CCNC(=O)[C@H](O)C(C)(C)COP(=O)(O)OP(=O)(O)OC[C@H]1O[C@@H](n2cnc3c(N)ncnc32)[C@H](O)[C@@H]1OP(=O)(O)O [16:0 Acyl-CoA, palmitoyl-CoA]
activity as substrate of the reductase (in words) [3]: barely above background
IC50 [5]: 5 µM

Compound: [Cl-].[Cl-].[Mg+2] [MgCl2]
salt effect on reductase activity (in words) [2, 7]: stimulate reductase activity

Compound: CCCCCCCC/C=C\CCCCCCCCCC(=O)SCCNC(=O)CCNC(=O)[C@H](O)C(C)(C)COP(=O)(O)OP(=O)(O)OC[C@H]1O[C@@H](n2cnc3c(N)ncnc32)[C@H](O)[C@@H]1OP(=O)(O)O [20:1 Acyl-CoA]
Reductase Activity, Acyl-CoA (10 μM) [1]: 1.0 pmol/min/µL

Compound: O=C(O)CN(CCN(CC(=O)O)CC(=O)O)CC(=O)O [ethylenediaminetetraacetic acid]
optimum concentration for stimulation of reductase activity [2]: 2.5 mM
effect on reductase activity (in words) ([2]; pH 7.5): some stimulation

Compound: [Cl-].[Li+] [LiCl]
salt effect on reductase activity (in words) [2, 7]: stimulate reductase activity

Compound: C/C=C/C/C=C/CCC(=O)[C@H]1O[C@H]1C(N)=O [Cerulinen]
inhibitory effect on reductase activity (in words) [2]: no strong inhibitory effect

effect on reductase activity (in words) ([2]; other effectors, pH 7.5): stimulatory
Compound: O[C@H](CS)[C@H](O)CS (racemic) [Dithiothreitol]

Compound: NC(=O)CI [iodoacetamide]
inhibitory effect on reductase activity (in words) [2]: no effect
